Measured values reported in patent publication US20190307843A1, “SINGLE DOSE METHODS FOR PREVENTING AND TREATING FUNGAL INFECTIONS” (Cidara Therapeutics, Inc., priority 2016, published 2019).

Assays:
C. albicans strain 529L = experiment: Rat model of vulvovaginal candidiasis, vaginal lavage and tissue burden; type: in vivo, Candida albicans
[1] = tested on: C. albicans SC-5314 biofilms; experiment: Adhesion phase biofilms (prevention), XTT metabolic activity and CSLM; type: cell-based, Candida albicans
C. auris = experiment: Murine model of disseminated candidiasis, C. auris infection, kidney CFU and survival; type: in vivo, Candida auris
[2] = tested on: C. albicans SC-5314 biofilms; experiment: Mature phase biofilms (treatment), XTT metabolic activity and CSLM; type: cell-based, Candida albicans
Candida auris strains = experiment: Candida auris antifungal susceptibility testing (CLSI M27-A3), 38 strains; type: cell-based; conditions: Candidozyma auris, 24 h
[3] = 20 mg/kg PO Dosed Once, lavage Day 1 post infection, pre-treatment
[4] = 20 mg/kg PO Dosed Once, lavage Day 2 post infection
[5] = 20 mg/kg PO Dosed Once, lavage Day 3 post infection
[6] = 20 mg/kg PO Dosed Once, lavage Day 5 post infection
[7] = 20 mg/kg PO Dosed Once, lavage Day 7 post infection
[8] = 20 mg/kg PO Dosed Once, lavage Day 9 post infection
[9] = 20 mg/kg PO Dosed Once, terminal vaginal tissue Day +9 post infection
[10] = 20 mg/kg PO Dosed Twice, lavage Day 1 post infection, pre-treatment
[11] = 20 mg/kg PO Dosed Twice, lavage Day 2 post infection
[12] = 20 mg/kg PO Dosed Twice, lavage Day 3 post infection
[13] = 20 mg/kg PO Dosed Twice, lavage Day 5 post infection
[14] = 20 mg/kg PO Dosed Twice, lavage Day 7 post infection
[15] = 20 mg/kg PO Dosed Twice, lavage Day 9 post infection
[16] = 20 mg/kg PO Dosed Twice, terminal vaginal tissue Day +9 post infection
[17] = fluconazole 1 and 4 μg/ml, 24 h

OC(Cn1cncn1)(Cn1cncn1)c1ccc(F)cc1F [fluconazole]
Group Geometric mean (C. albicans strain 529L; [3]): 3.16 × 10^3 CFU/mL | Log Group Geometric mean (C. albicans strain 529L; [3]): 3.50 CFU/mL | Log reduction from vehicle control (C. albicans strain 529L; [3]): −1.06 CFU/mL | Group Geometric mean (C. albicans strain 529L; [4]): 1.50 × 10^2 CFU/mL | Log Group Geometric mean (C. albicans strain 529L; [4]): 2.18 CFU/mL | Log reduction from vehicle control (C. albicans strain 529L; [4]): 1.52 CFU/mL | Group Geometric mean (C. albicans strain 529L; [5]): 1.00 CFU/mL | Log Group Geometric mean (C. albicans strain 529L; [5]): 0.00 CFU/mL | Log reduction from vehicle control (C. albicans strain 529L; [5]): 3.57 CFU/mL | Group Geometric mean (C. albicans strain 529L; [6]): 1.00 CFU/mL | Log Group Geometric mean (C. albicans strain 529L; [6]): 0.00 CFU/mL | Log reduction from vehicle control (C. albicans strain 529L; [6]): 4.22 CFU/mL | Group Geometric mean (C. albicans strain 529L; [7]): 1.00 CFU/mL | Log Group Geometric mean (C. albicans strain 529L; [7]): 0.00 CFU/mL | Log reduction from vehicle control (C. albicans strain 529L; [7]): 4.18 CFU/mL | Group Geometric mean (C. albicans strain 529L; [8]): 1.00 CFU/mL | Log Group Geometric mean (C. albicans strain 529L; [8]): 0.00 CFU/mL | Log reduction from vehicle control (C. albicans strain 529L; [8]): 4.30 CFU/mL | Group Geometric mean (C. albicans strain 529L; [9]): 1.00 CFU/g | Log Group Geometric mean (C. albicans strain 529L; [9]): 0.00 CFU/g | Log reduction from vehicle control (C. albicans strain 529L; [9]): 5.49 CFU/g | Group Geometric mean (C. albicans strain 529L; [10]): 1.04 × 10^3 CFU/mL | Log Group Geometric mean (C. albicans strain 529L; [10]): 3.02 CFU/mL | Log reduction from vehicle control (C. albicans strain 529L; [10]): −0.58 CFU/mL | Group Geometric mean (C. albicans strain 529L; [11]): 1.27 × 10^2 CFU/mL | Log Group Geometric mean (C. albicans strain 529L; [11]): 2.10 CFU/mL | Log reduction from vehicle control (C. albicans strain 529L; [11]): 1.59 CFU/mL | Group Geometric mean (C. albicans strain 529L; [12]): 1.49 CFU/mL | Log Group Geometric mean (C. albicans strain 529L; [12]): 0.17 CFU/mL | Log reduction from vehicle control (C. albicans strain 529L; [12]): 3.40 CFU/mL | Group Geometric mean (C. albicans strain 529L; [13]): 1.00 CFU/mL | Log Group Geometric mean (C. albicans strain 529L; [13]): 0.00 CFU/mL | Log reduction from vehicle control (C. albicans strain 529L; [13]): 4.22 CFU/mL | Group Geometric mean (C. albicans strain 529L; [14]): 1.00 CFU/mL | Log Group Geometric mean (C. albicans strain 529L; [14]): 0.00 CFU/mL | Log reduction from vehicle control (C. albicans strain 529L; [14]): 4.18 CFU/mL | Group Geometric mean (C. albicans strain 529L; [15]): 1.00 CFU/mL | Log Group Geometric mean (C. albicans strain 529L; [15]): 0.00 CFU/mL | Log reduction from vehicle control (C. albicans strain 529L; [15]): 4.30 CFU/mL | Group Geometric mean (C. albicans strain 529L; [16]): 1.00 CFU/g | Log Group Geometric mean (C. albicans strain 529L; [16]): 0.00 CFU/g | Log reduction from vehicle control (C. albicans strain 529L; [16]): 5.49 CFU/g | rats having burden below the limit of detection (C. albicans strain 529L; fluconazole 20 mg/kg PO once or twice, lavage Day 3 post infection): 11/12 | reduction in burden (C. albicans strain 529L; fluconazole 20 mg/kg PO, lavage Day 2 post infection): about 1.6 Log10 CFU/mL | lavage burden (C. albicans strain 529L; fluconazole once or twice, all rats, Day 5 post infection): below the limit of detection | terminal vaginal tissue burden (C. albicans strain 529L; fluconazole once or twice, all rats, Day 9): below the limit of detection | thickness of biofilms ([1]; fluconazole): no effect on biofilm thickness | biofilm formation by metabolic activity (XTT) [1, 17]: did not inhibit biofilm formation | percent survival at the end of the study (C. auris): 0% | thickness of biofilms ([2]; fluconazole): no effect | effect on mature biofilms [2, 17]: did not affect Candida biofilms | MIC (Candida auris strains; strain 1 VPCI 669/P/12): > 128 µg/mL | MIC (Candida auris strains; strain 2 VCPI 671/P/12): > 128 µg/mL | MIC (Candida auris strains; strain 3 VCPI 674/P/12): > 128 µg/mL | MIC (Candida auris strains; strain 4 VCPI 683/P/12): > 128 µg/mL | MIC (Candida auris strains; strain 5 VCPI 692/P/12): > 128 µg/mL | MIC (Candida auris strains; strain 6 VCPI 712/P/12): > 128 µg/mL | MIC (Candida auris strains; strain 7 VCPI 471/P/13): > 128 µg/mL | MIC (Candida auris strains; strain 8 VCPI 475/P/13): > 128 µg/mL | MIC (Candida auris strains; strain 9 VCPI 478/P/13): > 128 µg/mL | MIC (Candida auris strains; strain 10 VCPI 479/P/13): > 128 µg/mL | MIC (Candida auris strains; strain 11 VCPI 480/P/13): > 128 µg/mL | MIC (Candida auris strains; strain 12 VCPI 482/P/13): > 128 µg/mL | MIC (Candida auris strains; strain 13 VCPI 483/P/13): > 128 µg/mL
